From US20260115250A1, “METHODS OF TREATING AGE-RELATED MACULAR DEGENERATION” (Character Biosciences, Inc., priority 2022, published 2026)
Peptide text beside a SMILES is read from it.

Assays:
HepG2 cells [1] = assay: HepG2 cholesterol import (BODIPY-Cholesterol); format: cell-based; conditions: HepG2, peptide:lipid complexes from 30 μM diluted 1:3
Method: HepG2 cells were seeded on a 96-well plate at 10,000 cells per well and grown to confluence. A solution of 500 μM DMPC and 50 μM BODIPY-Cholesterol was prepared in serum free EMEM. Peptides were diluted to 20 μM in serum free EMEM (a 2× solution). Peptides were added to lipid solution in equal parts (60 μL each) to create final 1× concentration and incubated for 1 hour at 37° C. HepG2 cells were serum starved in serum-free EMEM for 1 hour at 37° C. Peptide: Lipid complexes (100 μL total volume per well) were transferred to HepG2 cells for 2 hours at 37° C. Cells were washed, fixed, and intracellular fluorescence was read on Promega GloMax at 475 nm excitation, 500-550 emission. Fluorescence values were background corrected from no treatment conditions. Data are presented as mean+SD for two runs.
HepG2 cells were seeded on 96-well plates at 10,000 cells per well and grown to confluence. Peptide: Lipid complexes were created by preparing a solution of serum-free EMEM containing 30 μM peptide, 750 μM DMPC, and 75 μM BODIPY-Cholesterol. Peptide: Lipid complexes were serially diluted 1:3 for 5 concentrations, and incubated for 1 hour at 37° C. […] Cells were washed, fixed, and intracellular fluorescence was read on Promega GloMax at 475 nm excitation, 500-550 emission. Fluorescence values were background corrected from no treatment conditions. […]

ARPE-19 cells [2] = assay: ARPE-19 cholesterol import (BODIPY-Cholesterol); format: cell-based, human
Method: FIG. 12 and FIGS. 14A-14B illustrate the results of ARPE-19 cholesterol import testing. ARPE-19 cells were seeded on 96-well plates at 25,000 cells per well and grown to confluence. A 2× solution of 500 μM DMPC and 50 μM BODIPY-Cholesterol were prepared in serum free DMEM: F12. Peptides were diluted to 20 μM in serum free DMEM: F12 (a 2× solution). Peptides were added to lipid solution in equal parts (60 μL each) and were incubated for 1 hour at 37° C. ARPE-19 cells were serum starved in serum free DMEM: F12 for 1 hour at 37° C. Peptide: Lipid complexes (100 μL total volume per well) were transferred to ARPE-19 cells for 2 hours at 37° C. Cells were washed, fixed, and intracellular fluorescence was read on Promega GloMax at 475 nm excitation, 500-550 emission. Fluorescence values were background corrected from no treatment conditions. Data are presented as mean+SD for two runs.
FIG. 15 illustrates ARPE-19 cholesterol import titration curves for a subset of the peptides. ARPE-19 cells were seeded on 96-well plates at 25,000 cells per well and grown to confluence. A 2× solution of 500 μM DMPC and 50 μM BODIPY-Cholesterol was prepared in serum free DMEM: F12. Peptides were diluted to 0.74-60 μM in serum free DMEM: F12 (2× solutions). Peptides were added to lipid solution in equal parts (60 μL each) to create final peptide concentrations of 0.37-30 µM and incubated for 1 hour at 37° C. ARPE-19 cells were serum starved in serum free DMEM: F12 for 1 hour at 37° C. Peptide: Lipid complexes (100 μL total volume per well) were transferred to ARPE-19 cells for 2 hours at 37° C. Cells were washed, fixed, and intracellular fluorescence was read on Promega GloMax at 475 nm excitation, 500-550 emission. Fluorescence values were background corrected from no treatment conditions. […]
ARPE-19 cells were seeded on 96-well plates at 25,000 cells per well and grown to confluence. […] Cells were washed, fixed, and intracellular fluorescence was read on Promega GloMax at 475 nm excitation, 500-550 emission. Fluorescence values were background corrected from no treatment conditions. […]

HepG2 cells [3] = assay: HepG2 GAG dependent cholesterol import (with or without heparin); format: cell-based; conditions: HepG2, 10 μM peptide, with or without 100 μg/mL heparin
Method: (§1) HepG2 cells were seeded on 96-well plates at 10,000 cells per well and grown to confluence. A 2× solution of 500 μM DMPC and 50 μM BODIPY-Cholesterol with or without 100 μg/mL heparin was prepared in serum free EMEM. Peptides were diluted to 20 μM in serum-free EMEM (a 2× solution). Peptides were added to lipid solution in equal parts (60 μL each) and incubated for 1 hour at 37° C. HepG2 cells were serum starved in serum-free EMEM for 1 hour at 37° C. Peptide: Lipid complexes (100 μL total volume per well) were transferred to HepG2 cells for 2 hours at 37° C. Cells were washed, fixed, and intracellular fluorescence was read on Promega GloMax at 475 nm excitation, 500-550 emission. Fluorescence values were background corrected from no treatment conditions. Data are presented ±SD for 2 runs.

[4] = DMPC solubility assay, 0.5 mM DMPC (turbidity reduction); format: biochemical; conditions: for DMPC solubilizing activity: FIGS. 2A-2D and 3A-3C
How it was run: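 Peptides (100 μM final, or 3.16-100 μM for titrations) incubated with 0.5 mM DMPC in water for 15 minutes at room temperature. Turbidity read as absorbance at 405 nm; EC50 from non-linear regression, mean+SD over two runs.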

ARPE-19 cells [5] = assay: ARPE-19 GAG-dependent cholesterol import (with or without heparin); format: cell-based, human; conditions: ARPE-19, 10 μM peptide
Method: as §1, with “ARPE-19” for “HepG2”, “25,000” for “10,000”, “µg/mL” for “μg/mL”, “DMEM: F12.” for “EMEM.”, “serum free DMEM: F12” for “serum-free EMEM”

ARPE-19 cells [6] = assay: ARPE-19 cell lysis (Sytox Green); format: cell-based, human; conditions: 3.16-100 μM peptide, 2 h
Method: These figures illustrate ARPE-19 cell lysis. ARPE-19 cells were grown in 96-well plates to 75-85% confluence. Peptides at 10 mM were diluted in serum-free DMEM:F12 media into a 20 μM working solution (a 2× solution). Sytox Green was prepared in serum-free DMEM:F12 at a 1 μM working solution (a 2× solution). Equivalent volumes of the peptide and Sytox Green solutions were added to empty 96-well plates and mixed gently. Final peptide concentration was 10 μM. ARPE-19 cells (˜80% confluent in 96-well plates) were washed with DPBS and then incubated in 100 μL of peptide/Sytox Green mixture for 2 h at 37° C. Cells were fixed in 4% paraformaldehyde solution in DPBS and then incubated in 10 μM Hoechst solution for 10 min, washed, and imaged on a Yokogawa CQ1 high-content imager. CellPathfinder software was used to count live/dead cells in 4 fields of view at 20× magnification. Percent (%) lysis was calculated by dividing the number of Sytox Green+ nuclei by the total number of Hoechst+ nuclei.
ARPE-19 cells were grown in 96-well plates to 75-85% confluence. Peptides at 10 mM were diluted in serum-free DMEM: F12 media to solutions between […]. Sytox Green was prepared in serum-free DMEM: F12 media at a 1 μM working solution. Equivalent volumes of the peptide and Sytox Green solutions were added to empty 96-well plates and mixed gently. Final peptide concentration was 3.16-100 μM. ARPE-19 cells (˜80% confluent in 96-well plates) were washed with DPBS and then incubated in 100 μL of peptide/Sytox Green mixture for 2 h at 37° C. Cells were fixed in 4% paraformaldehyde solution in DPBS and then incubated in 10 μM Hoechst solution for 10 min, washed, and imaged on a Yokogawa CQ1 high-content imager. CellPathfinder software was used to count live/dead cells in 4 fields of view at 20× magnification. Percent (%) lysis was calculated by dividing the number of Sytox Green+ nuclei by the total number of Hoechst+ nuclei. Non-linear regression was used to calculate EC50 values.

LDLR = LDLR (Homo sapiens, UniProt P01130); assay: KD (µM)
LDLR, sequence (P01130 22-860 limits assumed): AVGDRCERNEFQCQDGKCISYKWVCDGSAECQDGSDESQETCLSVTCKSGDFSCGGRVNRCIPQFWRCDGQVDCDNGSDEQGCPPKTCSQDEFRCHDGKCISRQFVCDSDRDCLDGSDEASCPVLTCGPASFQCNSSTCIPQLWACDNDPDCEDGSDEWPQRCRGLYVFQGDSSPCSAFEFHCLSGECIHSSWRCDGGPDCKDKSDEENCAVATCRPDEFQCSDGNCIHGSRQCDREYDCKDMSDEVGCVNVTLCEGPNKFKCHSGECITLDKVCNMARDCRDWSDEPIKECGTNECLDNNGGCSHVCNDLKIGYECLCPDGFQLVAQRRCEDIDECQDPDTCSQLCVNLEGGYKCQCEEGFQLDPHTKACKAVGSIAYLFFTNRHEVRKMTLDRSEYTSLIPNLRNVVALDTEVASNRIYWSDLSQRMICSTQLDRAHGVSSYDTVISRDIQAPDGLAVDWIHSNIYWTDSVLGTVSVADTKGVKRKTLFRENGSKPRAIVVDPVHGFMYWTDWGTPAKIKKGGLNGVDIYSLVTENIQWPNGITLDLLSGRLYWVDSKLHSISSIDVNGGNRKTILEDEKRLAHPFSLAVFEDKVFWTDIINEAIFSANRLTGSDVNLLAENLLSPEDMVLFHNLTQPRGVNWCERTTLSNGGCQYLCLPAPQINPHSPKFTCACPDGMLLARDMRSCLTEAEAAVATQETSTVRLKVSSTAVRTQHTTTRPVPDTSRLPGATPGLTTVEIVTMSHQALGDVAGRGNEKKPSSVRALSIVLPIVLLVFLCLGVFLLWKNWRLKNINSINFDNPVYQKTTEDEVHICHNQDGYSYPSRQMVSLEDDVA
Source text: Table printed on a drawing sheet, FIG. 23
Title: Buffer: HBS + 0.05% P20
Head of the field: KD (µM)
The patent's description of the figure: FIG. 23 is a table showing the binding kinetics results of LDLR binding assays (SPR), high surfactant preparation as described herein for select peptides shown in FIG. 1A-1I.
First copying reader's note: Middle of three side-by-side panels of FIG. 23; the KD cells hold value ± error together.
Where the first naming reader finds the target: description_of_the_figure: FIG. 23 is a table showing the binding kinetics results of LDLR binding assays (SPR)

[7] = DMPC solubility titration, 1 mM DMPC; format: biochemical; conditions: 3.16-100 μM peptides, 15 minutes
Method: FIGS. 4A-4B illustrate a screening assay based on DMPC solubility, measured by reducing turbidity of DMPC liposome solutions, for a subset of the peptides in FIGS. 1B-1I. FIGS. 4A-4B illustrate DMPC solubility titration curves. Peptide stocks were diluted to 200 μM in H2O (a 2× solution) and serially diluted in H2O over 4 concentrations, then 50 μL of peptide solutions were distributed in triplicate into 96-well plates. A 2 mM solution of 1,2-dimyristoyl-sn-glycero-3-phosphocholine (DMPC) in H2O was prepared, and using a multichannel pipet, 50 μL DMPC solution was rapidly added to the plate. Peptide and lipid solutions were incubated at room temperature for 15 minutes with final concentrations of 3.16-100 μM peptides and 1 mM DMPC. After 15 minutes, absorbance was read on a plate reader at 405 nm. […] Data are presented as mean+SD over two runs. Non-linear regression was used to calculate EC50 values.

HMC3 cells = assay: HMC3 cholesterol efflux; format: cell-based, human

| Kd (LDLR) [µM] | EC50 [7] [µM] | SMILES | cholesterol import titration (HepG2 cells [1]) | cholesterol import titration (ARPE-19 cells [2]; ARPE-19, 0.37-30 μM peptide, FIG. 15) | GAG dependence of cholesterol import (HepG2 cells [3]) | EC50 ([4]; 3.16-100 μM peptides, 15 minutes) [µM] | DMPC solubilizing activity [4] | GAG dependence of cholesterol import (ARPE-19 cells [5]) | EC50 (ARPE-19 cells [6]) [µM] | cholesterol import titration (ARPE-19 cells [2]; ARPE-19, peptide:lipid complexes from 30 μM diluted 1:3, FIG. 16) | cholesterol efflux titration (HMC3 cells; HMC3, 0-100 μM peptide, LXR agonist) | cholesterol efflux in the presence of LXR agonist (HMC3 cells; HMC3, 20 μM peptide, 4 hours) |
| --- | --- | --- | --- | --- | --- | --- | --- | --- | --- | --- | --- | --- |
| – | – | CSCC[C@H](NC(=O)[C@H](CC(C)C)NC(=O)[C@H](CC(=O)O)NC(=O)[C@H](CCCCN)NC(=O)CNC(=O)[C@H](Cc1ccc(O)cc1)NC(=O)[C@H](CC(=O)O)NC(=O)[C@@H](NC(=O)[C@@H](NC(=O)[C@@H](NC(=O)[C@H](CCC(N)=O)NC(=O)[C@H](Cc1ccccc1)NC(=O)[C@H](Cc1ccc(O)cc1)NC(=O)[C@H](CCC(N)=O)NC(=O)[C@H](CO)NC(=O)[C@@H](NC(=O)[C@H](CC(C)C)NC(=O)[C@H](CO)NC(=O)[C@H](CCCNC(=N)N)NC(=O)[C@H](CC(C)C)NC(=O)[C@H](CC(C)C)NC(=O)[C@H](CCCNC(=N)N)NC(=O)[C@H](CCCCN)NC(=O)[C@H](CCCNC(=N)N)NC(=O)[C@H](CC(C)C)NC(=O)[C@H](CCCCN)NC(=O)[C@H](CCCNC(=N)N)NC(=O)[C@H](CC(C)C)NC(=O)[C@@H](N)Cc1c[nH]cn1)C(C)C)[C@@H](C)O)C(C)C)[C@@H](C)O)C(=O)O [T-027] (H-HLRKLRKRLLRSLVSQYFQTVTDYGKDLM-OH; N-terminus and C-terminus assumed) | concentration-dependent cholesterol import activity | concentration-dependent increase in cholesterol import | rely on GAG binding for cholesterol import activity | 56.6 | significant activity | rely on GAG binding for cholesterol import activity | 40.1 | – | – | – |
| 150 ± 41.7 | – | CC(C)C[C@H](NC(=O)[C@H](CCCNC(=N)N)NC(=O)[C@H](CC(=O)O)NC(=O)[C@H](CCC(N)=O)NC(=O)[C@H](CC(C)C)NC(=O)[C@H](CCCCN)NC(=O)[C@H](CC(=O)O)NC(=O)CNC(=O)[C@H](CC(=O)O)NC(=O)[C@H](CCCNC(=N)N)NC(=O)[C@H](Cc1ccccc1)NC(=O)[C@H](CC(C)C)NC(=O)[C@H](CCCNC(=N)N)NC(=O)[C@H](CCCCN)NC(=O)[C@H](CCCNC(=N)N)NC(=O)[C@H](CC(C)C)NC(=O)[C@H](CCCCN)NC(=O)[C@H](CCCNC(=N)N)NC(=O)[C@H](CC(C)C)NC(=O)[C@@H](N)Cc1c[nH]cn1)C(=O)N[C@@H](C)C(=O)N[C@@H](CCC(=O)O)C(=O)N[C@@H](Cc1ccc(O)cc1)C(=O)N[C@@H](CCC(N)=O)C(=O)N[C@@H](C)C(=O)N[C@@H](CCCNC(=N)N)C(=O)N[C@@H](C)C(=O)N[C@@H](CCCCN)C(=O)N[C@@H](CCC(=O)O)C(=O)N[C@@H](C)C(=O)N[C@@H](Cc1ccccc1)C(=O)N[C@@H](CC(=O)O)C(=O)N[C@@H](CCCNC(=N)N)C(=O)O [T-060] (H-HLRKLRKRLFRDGDKLQDRLAEYQARAKEAFDR-OH; N-terminus and C-terminus assumed) | – | – | – | – | – | – | – | – | – | – |
| – | 15.8 | CC(C)C[C@H](NC(=O)[C@H](C)NC(=O)[C@H](CCCNC(=N)N)NC(=O)[C@H](Cc1ccccc1)NC(=O)[C@H](CCCNC(=N)N)NC(=O)[C@H](CCC(=O)O)NC(=O)[C@@H](N)Cc1c[nH]c2ccccc12)C(=O)N[C@@H](Cc1ccccc1)C(=O)N[C@@H](CCCCN)C(=O)N[C@@H](CCC(=O)O)C(=O)N[C@@H](CC(C)C)C(=O)N[C@@H](C)C(=O)N[C@@H](CC(=O)O)C(=O)N[C@@H](Cc1ccc(O)cc1)C(=O)N[C@@H](Cc1ccccc1)C(=O)N[C@@H](CCCNC(=N)N)C(=O)N[C@@H](CC(=O)O)C(=O)N[C@@H](C)C(=O)O [T-086] (H-WERFRALFKELADYFRDA-OH; N-terminus and C-terminus assumed) | – | – | – | – | significant activity | – | – | not able to increase cholesterol import | concentration-dependent increase in cholesterol efflux | greater cholesterol efflux |
